Data taken from ChEMBL document CHEMBL5543097, “Synthesis and structure-activity relationships of novel 14-membered 2-fluoro ketolides with structural modification at the C11 position” (Eur J Med Chem, 2024).
In brackets after ≈: the same amount, converted by molar mass.

Key:
[1] = test system: Streptococcus pyogenes; experiment: Antibacterial activity against erythromycin-resistant Streptococcus pyogenes ATCC 19615 assessed as inhibition of visible bacterial growth incubated for 18 hrs by broth microdilution method; type: functional
[2] = test system: Streptococcus agalactiae; experiment: Antibacterial activity against erythromycin-resistant Streptococcus agalactiae 19-9 assessed as inhibition of visible bacterial growth incubated for 18 hrs by broth microdilution method; type: functional
[3] = test system: Streptococcus agalactiae; experiment: Antibacterial activity against erythromycin-resistant Streptococcus agalactiae 19-8 assessed as inhibition of visible bacterial growth incubated for 18 hrs by broth microdilution method; type: functional
[4] = test system: Streptococcus pneumoniae; experiment: Antibacterial activity against erythromycin-resistant Streptococcus pneumoniae SPN19-14 assessed as inhibition of visible bacterial growth incubated for 18 hrs by broth microdilution method; type: functional
[5] = test system: Streptococcus pneumoniae; experiment: Antibacterial activity against erythromycin-resistant Streptococcus pneumoniae SPN19-13 assessed as inhibition of visible bacterial growth incubated for 18 hrs by broth microdilution method; type: functional
[6] = test system: Streptococcus pneumoniae; experiment: Antibacterial activity against erythromycin-resistant Streptococcus pneumoniae SPN19-8 assessed as inhibition of visible bacterial growth incubated for 18 hrs by broth microdilution method; type: functional
[7] = test system: Staphylococcus epidermidis; experiment: Antibacterial activity against erythromycin-resistant Staphylococcus epidermidis 19-11 assessed as inhibition of visible bacterial growth incubated for 18 hrs by broth microdilution method; type: functional
[8] = test system: Staphylococcus epidermidis; experiment: Antibacterial activity against erythromycin-resistant Staphylococcus epidermidis 19-9 assessed as inhibition of visible bacterial growth incubated for 18 hrs by broth microdilution method; type: functional
[9] = test system: Staphylococcus epidermidis; experiment: Antibacterial activity against erythromycin-resistant Staphylococcus epidermidis 19-8 assessed as inhibition of visible bacterial growth incubated for 18 hrs by broth microdilution method; type: functional
[10] = test system: Staphylococcus epidermidis; experiment: Antibacterial activity against erythromycin-resistant Staphylococcus epidermidis 19-6 assessed as inhibition of visible bacterial growth incubated for 18 hrs by broth microdilution method; type: functional
[11] = test system: Staphylococcus epidermidis; experiment: Antibacterial activity against erythromycin-resistant Staphylococcus epidermidis 19-4 assessed as inhibition of visible bacterial growth incubated for 18 hrs by broth microdilution method; type: functional
[12] = test system: Staphylococcus epidermidis; experiment: Antibacterial activity against erythromycin-resistant Staphylococcus epidermidis 19-5 assessed as inhibition of visible bacterial growth incubated for 18 hrs by broth microdilution method; type: functional
[13] = test system: Moraxella catarrhalis; experiment: Antibacterial activity against Moraxella catarrhalis BCA 19-6 assessed as inhibition of bacterial growth incubated for 24 hrs by CLSI based broth microdilution method; type: functional; settings: Moraxella catarrhalis, BCA 19-6, 24 h, read-out: MIC
[14] = test system: Moraxella catarrhalis; experiment: Antibacterial activity against Moraxella catarrhalis BCA 19-31 assessed as inhibition of bacterial growth incubated for 24 hrs by CLSI based broth microdilution method; type: functional; settings: BCA 19-31, 24 h
[15] = test system: Haemophilus influenzae; experiment: Antibacterial activity against Haemophilus influenzae HIN 19-15 assessed as inhibition of bacterial growth incubated for 20 to 24 hrs by CLSI based broth microdilution method; type: functional; settings: time 20-24 hrs
[16] = test system: Haemophilus influenzae; experiment: Antibacterial activity against Haemophilus influenzae HIN 19-18 assessed as inhibition of bacterial growth incubated for 20 to 24 hrs by CLSI based broth microdilution method; type: functional; settings: HIN 19-18, time 20-24 hrs
[17] = Cytotoxicity against mouse AML12 cells assessed as reduction in cell viability incubated for 48 hrs by MTT assay; type: toxicity, cell-based
[18] = test system: Moraxella catarrhalis; experiment: Antibacterial activity against Moraxella catarrhalis BCA 19-5 assessed as inhibition of bacterial growth incubated for 24 hrs by CLSI based broth microdilution method; type: functional; settings: Moraxella catarrhalis, BCA 19-5, 24 h, read-out: MIC
[19] = test system: Haemophilus influenzae; experiment: Antibacterial activity against Haemophilus influenzae HIN 20-18 assessed as inhibition of bacterial growth incubated for 20 to 24 hrs by CLSI based broth microdilution method; type: functional; settings: time 20-24 hrs

| SMILES | MIC [1] | MIC [2] | MIC [3] | MIC [4] | MIC [5] | MIC [6] | MIC [7] | MIC [8] | MIC [9] | MIC [10] | MIC [11] | MIC [12] | MIC [13] | MIC [14] | MIC [15] | MIC [16] | CC50 at 48 h [17] | MIC [18] | MIC [19] |
| --- | --- | --- | --- | --- | --- | --- | --- | --- | --- | --- | --- | --- | --- | --- | --- | --- | --- | --- | --- |
| CC[C@H]1OC(=O)[C@@](C)(F)C(=O)[C@H](C)[C@@H](O[C@@H]2O[C@H](C)C[C@H](N(C)C)[C@H]2O)[C@](C)(OC)C[C@@H](C)C(=O)[C@H](C)[C@H]2N(CCCOC(=O)Nc3ccc(-c4ccccc4)cc3)C(=O)O[C@]12C | < 0.03 µg/mL | 4 µg/mL (≈ 4.52 µM) | < 0.03 µg/mL | 0.125 µg/mL (≈ 0.141 µM) | 1 µg/mL (≈ 1.13 µM) | 1 µg/mL (≈ 1.13 µM) | 0.5 µg/mL (≈ 0.566 µM) | 0.5 µg/mL (≈ 0.566 µM) | 0.25 µg/mL (≈ 0.283 µM) | 1 µg/mL (≈ 1.13 µM) | 0.125 µg/mL (≈ 0.141 µM) | < 0.03 µg/mL | 1 µg/mL (≈ 1.13 µM) | 1 µg/mL (≈ 1.13 µM) | 32 µg/mL (≈ 36.2 µM) | 8 µg/mL (≈ 9.05 µM) | 20.7 µM |  |  |
| CC[C@H]1OC(=O)[C@@](C)(F)C(=O)[C@H](C)[C@@H](O[C@@H]2O[C@H](C)C[C@H](N(C)C)[C@H]2O)[C@](C)(OC)C[C@@H](C)C(=O)[C@H](C)[C@H]2N(CCCOC(=O)Nc3cc(C)ccc3C)C(=O)O[C@]12C |  |  |  |  |  |  |  |  |  |  |  |  | 0.125 µg/mL (≈ 0.15 µM) | 0.125 µg/mL (≈ 0.15 µM) | 8 µg/mL (≈ 9.57 µM) | 8 µg/mL (≈ 9.57 µM) | 33.1 µM | 0.125 µg/mL (≈ 0.15 µM) | 16 µg/mL (≈ 19.1 µM) |
| CC[C@H]1OC(=O)[C@@](C)(F)C(=O)[C@H](C)[C@@H](O[C@@H]2O[C@H](C)C[C@H](N(C)C)[C@H]2O)[C@](C)(OC)C[C@@H](C)C(=O)[C@H](C)[C@H]2N(CCCOC(=O)Nc3cccc(C(F)(F)F)c3)C(=O)O[C@]12C | < 0.03 µg/mL | 8 µg/mL (≈ 9.13 µM) | < 0.03 µg/mL | 2 µg/mL (≈ 2.28 µM) | 2 µg/mL (≈ 2.28 µM) | 2 µg/mL (≈ 2.28 µM) | 0.25 µg/mL (≈ 0.285 µM) | 1 µg/mL (≈ 1.14 µM) | 0.5 µg/mL (≈ 0.571 µM) | 0.5 µg/mL (≈ 0.571 µM) | 0.5 µg/mL (≈ 0.571 µM) | 0.5 µg/mL (≈ 0.571 µM) | 1 µg/mL (≈ 1.14 µM) | 4 µg/mL (≈ 4.57 µM) | 64 µg/mL (≈ 73.1 µM) | 64 µg/mL (≈ 73.1 µM) | 12.4 µM | 1 µg/mL (≈ 1.14 µM) |  |
| CC[C@H]1OC(=O)[C@@](C)(F)C(=O)[C@H](C)[C@@H](O[C@@H]2O[C@H](C)C[C@H](N(C)C)[C@H]2O)[C@](C)(OC)C[C@@H](C)C(=O)[C@H](C)[C@H]2N(CCCOC(=O)Nc3c(F)cccc3F)C(=O)O[C@]12C | < 0.03 µg/mL | 1 µg/mL (≈ 1.18 µM) |  | 0.125 µg/mL (≈ 0.148 µM) | 0.125 µg/mL (≈ 0.148 µM) | 0.125 µg/mL (≈ 0.148 µM) | < 0.03 µg/mL | 0.25 µg/mL (≈ 0.296 µM) | 0.125 µg/mL (≈ 0.148 µM) | 0.125 µg/mL (≈ 0.148 µM) | 0.03 µg/mL (≈ 0.0355 µM) | < 0.03 µg/mL | 0.125 µg/mL (≈ 0.148 µM) | 0.125 µg/mL (≈ 0.148 µM) | 4 µg/mL (≈ 4.74 µM) | 4 µg/mL (≈ 4.74 µM) | > 100 µM | 0.122 µg/mL (≈ 0.145 µM) | 16 µg/mL (≈ 19 µM) |
| CCc1ccc(NC(=O)OCCCN2C(=O)O[C@]3(C)[C@@H](CC)OC(=O)[C@@](C)(F)C(=O)[C@H](C)[C@@H](O[C@@H]4O[C@H](C)C[C@H](N(C)C)[C@H]4O)[C@](C)(OC)C[C@@H](C)C(=O)[C@H](C)[C@@H]23)cc1 | < 0.03 µg/mL | 0.5 µg/mL (≈ 0.598 µM) | < 0.03 µg/mL | < 0.03 µg/mL | 0.06 µg/mL (≈ 0.0718 µM) | 0.125 µg/mL (≈ 0.15 µM) | 0.03 µg/mL (≈ 0.0359 µM) | 0.125 µg/mL (≈ 0.15 µM) | < 0.03 µg/mL | < 0.03 µg/mL | < 0.03 µg/mL | < 0.03 µg/mL |  |  |  |  | 25.6 µM |  |  |
| CC[C@H]1OC(=O)[C@@](C)(F)C(=O)[C@H](C)[C@@H](O[C@@H]2O[C@H](C)C[C@H](N(C)C)[C@H]2O)[C@](C)(OC)C[C@@H](C)C(=O)[C@H](C)[C@H]2N(CCCOC(=O)Nc3cc(C)cc(C)c3)C(=O)O[C@]12C | < 0.03 µg/mL | 4 µg/mL (≈ 4.78 µM) | 0.06 µg/mL (≈ 0.0718 µM) | 1 µg/mL (≈ 1.2 µM) | 0.5 µg/mL (≈ 0.598 µM) | 0.5 µg/mL (≈ 0.598 µM) | 0.25 µg/mL (≈ 0.299 µM) | 0.5 µg/mL (≈ 0.598 µM) | 0.25 µg/mL (≈ 0.299 µM) | 0.5 µg/mL (≈ 0.598 µM) | < 0.25 µg/mL | < 0.03 µg/mL | 1 µg/mL (≈ 1.2 µM) | 0.5 µg/mL (≈ 0.598 µM) | 16 µg/mL (≈ 19.1 µM) | 16 µg/mL (≈ 19.1 µM) | 25.5 µM | 1 µg/mL (≈ 1.2 µM) |  |
